Source: US8617534B2, “Compositions and method for manipulating PIM-1 activity in circulatory system cells” (San Diego State University (SDSU) Foundation, priority 2007, dated 2013)
“Also recorded” adds a separate entry of the source.

B1: SV40 small T antigen: viral protein said to block negative regulation of PIM-1 by protein phosphatase 2A (protein, UniProt P03081 1-174, looked up)
Small t antigen: MDKVLNREESLQLMDLLGLERSAWGNIPLMRKAYLKKCKEFHPDKGGDEEKMKKMNTLYKKMEDGVKYAHQPDFGGFWDATEVFASSLNPGVDAMYCKQWPECAKKMSANCICLLCLLRMKHENRKLYRKDPLVWVDCYCFDCFRMWFGLDLCEGTLLLWCDIIGQTTYRDLKL

What was measured:
protein phosphatase 2A = settings: cited from earlier work
PIM-1 = PIM-1 expression in cultured cardiomyocytes (immunoblot, confocal microscopy); format: cell-based, rat; settings: for PIM-1 protein level (immunoblot): 2 hour exposure; for PIM-1 immunoreactivity by confocal microscopy / induction of PIM-1 expression: treatment for 2 hours; for PIM-1 immunoreactivity by confocal microscopy: compared to control cells
Method: Neonatal Rat Cardiomyocyte Cultures infections and treatments. Neonatal rat cardiomyocyte cultures were prepared as described previously^12. Cells to be subjected to treatments were placed in media with 2% serum overnight and then treated with the appropriate agent and harvested or fixed after the pre-described timepoint. Cardiomyocytes were infected with adenovirus for two hours, washed in PBS and then re-fed M199 with 2% FBS and 50 μg/ml pen/strep, and 100 μM glutamine.
Immunoblotting. Infected cardiomyocytes were harvested 24 hours after infection in SDS denaturing sample buffer, sonicated and boiled for 10 minutes, and quantitated using the Bradford assay. Mouse whole heart lysates were generated from flash frozen hearts pulverized in a mortar and pestle then resuspended in SDS denaturing sample buffer, sonicated, boiled for 10 minutes and quantitated using Bradford assay. […] Blots were blocked in 3% BSA for 1 hour, and probed with primary antibodies (PIM-1 (Cell Signaling Technology), c-jun (Cell Signaling Technology), HISTONE3™ (Cell Signaling Technology), GFP (Molecular Probes), bcl-2 (Santa Cruz), bcl-XL (Cell Signaling Technology), PHOSPHO-BADS112™ (Biosource) AKT (Cell Signaling Technology), GAPDH (Research Diagnostics Inc.), PHOSPHO-AKTS473™ (Cell Signaling Technology), total PARP (Biosource), cleaved PARP (Biosource), and cleaved caspase3 (Cell Signaling Technologies)) diluted in blocking solution overnight at 4° C. Blots were washed in TBS-0.5% Tween three times and probed with fluorescent or alkaline phosphatase conjugated secondary antibodies diluted 1:5000 in blocking solution for 1 hour at room temperature followed by three washes in TBS-0.5% Tween. […] All quantitation is based on standardization to loading controls.
Immunohistochemistry. Hearts were fixed and embedded and cardiomyocytes fixed and permeabilized as described previously^12. Staining of cultured neonatal rat cardiomyocytes was performed with antibodies described above diluted 1:25 in PBS containing 10% horse serum overnight at 4° C. Slides were washed in PBS and probed with fluorescent conjugated secondary antibodies (1:100) for one hour at room temperature, and Texas Red phalloidin (1:50 Molecular Probes) to identify actin filaments. Slides were washed three times in PBS, and stained for 30 minutes with TOPRO-3™ (1:5000 Molecular Probes) to identify nuclei, washed once and cover-slipped using […]™ (Vectra Labs). Paraffin embedded samples were cut at 4 μm and deparaffinized through a standard series of Xylene and graded Ethanol steps to water. Antigen retrieval was performed in 10 mM Citrate pH6.0. PIM-1 and phospho-AKT signals were amplified using the TYRAMIDE AMPLIFICATION KIT™ (Perkin Elmer) with primary concentrations of 1:500 for both antibodies, and secondaries 1:3000. Slides were washed following the amplification process, and stained with TOPRO-3 (Molecular Probes) to identify nuclei, washed and cover-slipped with […]™ (Vectra Labs). Confocal imaging of stained slides was performed on a Leica LCS confocal microscope. For comparison purposes, all slides were treated identically and scanned using the same settings in each experiment.

[1] = test system: neonatal rat cardiomyocytes (NRCMs); assay: Endothelin-1 induced hypertrophy, cell surface area of neonatal rat cardiomyocytes; format: cell-based; settings: 10 nM for 1 hour prior to 48 hour incubation with ET-1; compared to ET-1 stimulated cells without inhibitor
Method: The impact of Pim-wt overexpression upon cardiomyocyte hypertrophy was initially examined using neonatal rat cardiomyocytes (NRCMs) infected with adenoviruses encoding EGFP-Pim-wt or EGFP protein followed by stimulation with endothelin-1 (ET-1) for 24 hours.
Neonatal rat cardiomyocyte cultures were prepared as described previously (10).

Molecule | PIM-1 protein level (immunoblot) (PIM-1) | PIM-1 immunoreactivity by confocal microscopy (PIM-1) | induction of PIM-1 expression (PIM-1) | further results
C=C1[C@@H](O)[C@@H]2O[C@]3(CC[C@H](/C=C/[C@@H](C)[C@@H]4CC(C)=C[C@@]5(O[C@H](C[C@@](C)(O)C(=O)O)CC[C@H]5O)O4)O3)CC[C@H]2O[C@@H]1[C@@H](O)C[C@H](C)[C@H]1O[C@@]2(CCCCO2)CC[C@H]1C [Okadaic acid] | – | – | – | effect on negative regulation of PIM-1 by protein phosphatase 2A (protein phosphatase 2A): inhibit or block negative regulation of PIM-1 by protein phosphatase 2A
endothelin-1 | little or no increase; also recorded: did not markedly increase Pim-1 protein expression | not induced | – | –
CNC[C@H](O)c1cccc(O)c1 [phenylephrine] | did not markedly increase Pim-1 protein expression | not induced | – | PIM-1 protein level (immunoblot) (PIM-1; listed as phenyl-ephedrine): little or no increase
Insulin-like Growth Factor [IGF-1] | significantly increased PIM-1 expression; also recorded: Induction is evident | induced PIM-1 immunoreactivity | 2.7 fold | –
O=c1c(O)c(-c2ccc(O)c(O)c2)oc2cc(O)c(O)c(O)c12 [quercetagetin] | – | – | – | cell surface of Pim-1 expressing NRCM cultures [1]: significantly larger surface
CCCCCCCCCCCCCC(=O)O[C@@H]1[C@@H](C)[C@@]2(O)[C@@H](C=C(CO)C[C@]3(O)C(=O)C(C)=C[C@@H]23)[C@@H]2C(C)(C)[C@]12OC(C)=O [PMA] | significantly increased PIM-1 expression; also recorded: Induction is evident | induced PIM-1 immunoreactivity | 2.3 fold | –
C=C[C@@]1(C)CC(=O)[C@]2(O)[C@@]3(C)[C@@H](O)CCC(C)(C)[C@@H]3[C@H](O)[C@H](OC(C)=O)[C@@]2(C)O1 [forskolin] | – | – | – | reduction of PIM-1 expression (PIM-1; versus control cultures): 45%
C[C@@H]1C[C@H]2[C@@H]3CCC4=CC(=O)C=C[C@]4(C)[C@@]3(F)[C@@H](O)C[C@]2(C)[C@@]1(O)C(=O)CO [dexamethasone] | – | – | 2.0 fold | –
COC[C@H]1OC(=O)c2coc3c2[C@@]1(C)C1=C(C3=O)[C@@H]2CCC(=O)[C@@]2(C)C[C@H]1OC(C)=O [wortmannin] | – | – | – | reduction of PIM-1 expression in response to IGF-1 treatment (PIM-1; in the presence of the inhibitor or inactivated AKT): 4.0 fold
Leukemia Inhibitory Factor [LIF] | significantly increased PIM-1 expression | induced PIM-1 immunoreactivity | 2.8 fold | –
B1 | – | – | – | effect on negative regulation of PIM-1 by protein phosphatase 2A (protein phosphatase 2A): inhibit or block negative regulation of PIM-1 by protein phosphatase 2A
